Experimental findings from patent US12527779B2, “Prostaglandin E2 (PGE2) EP4 receptor antagonists” (Domain Therapeutics, priority 2019, dated 2026) are described below.

pIC50: −log10 of the molar value. Where a name gives a salt, the structure may show the parent alone.

For the assay, the target named is T1, human EP4 (hEP4) receptor (Homo sapiens, UniProt P35408).
T1 construct: expressed in transfected cells; host or cells: HEK-293 T cells, transient co-transfection with polyethylenimine
T1 sequence (P35408 whole entry): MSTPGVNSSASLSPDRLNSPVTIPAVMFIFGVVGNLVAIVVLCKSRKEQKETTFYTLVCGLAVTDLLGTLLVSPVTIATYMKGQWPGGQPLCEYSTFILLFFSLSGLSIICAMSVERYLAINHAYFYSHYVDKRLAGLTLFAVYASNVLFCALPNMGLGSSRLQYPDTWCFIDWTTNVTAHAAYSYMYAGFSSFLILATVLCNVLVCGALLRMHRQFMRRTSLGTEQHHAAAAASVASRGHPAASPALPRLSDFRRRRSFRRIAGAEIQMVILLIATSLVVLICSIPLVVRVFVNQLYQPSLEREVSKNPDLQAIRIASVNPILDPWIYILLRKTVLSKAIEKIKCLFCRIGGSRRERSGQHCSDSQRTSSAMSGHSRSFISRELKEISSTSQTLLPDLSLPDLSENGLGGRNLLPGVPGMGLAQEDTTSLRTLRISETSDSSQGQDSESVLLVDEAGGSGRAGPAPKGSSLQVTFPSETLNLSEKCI
Nature of the assay: In vitro human EP4 functional antagonist activity using BRET biosensors (cAMP EPAC biosensor, TCS2510 stimulation). Format: cell-based. The conditions noted are these: antagonist activity vs EC60 TCS2510, hEP4 in HEK-293 T cells. The method in brief: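 Antagonism measured as inhibition of EC60 TCS2510-induced cAMP BRET signal (EPAC luciferase/GFP sensor) in transiently hEP4-expressing HEK-293T cells, following 5 min compound preincubation and 10 min luminescence recording. Plates equilibrated 1 h at 22 °C in HEPES buffer; 10 concentrations over 4.5 logs, duplicate in two independent experiments, sigmoidal variable-slope IC50.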
In general, pIC50 refers to −log10 of the IC50, conventionally taken in molar units. The low end stands for a high IC50, the high end for a low IC50. For the molecule `O=C(O)c1ccc(C2(NC(=O)C3(OCCOc4cccc(Cl)c4)CCOCC3)CC2)cc1` [Example 82, 4-[1-[[4-[2-(3-Chlorophenoxy)ethoxy]tetrahydropyran-4-carbonyl]amino]cyclopropyl]benzoic acid], the pIC50 is more than 7.00. Next, `CN(CCOc1cccc(C(F)(F)F)c1)C1(C(=O)NC2(c3ccc(C(=O)O)cc3)CC2)CCOCC1` [Example 41, 4-[1-[[4-[2-(3-Trifluoromethylphenoxy)ethyl-methyl-amino]tetrahydropyran-4-carbonyl]amino]cyclopropyl]benzoic acid, hydrochloride]: more than 7.00. In turn, `C[C@H](NC(=O)C1(NCCOc2ccccc2)CCC1)c1ccc(C(=O)O)cc1` [Example 69, 4-[(1S)-1-[[1-(2-Phenoxyethylamino)cyclobutanecarbonyl]amino]ethyl]benzoic acid, hydrochloride] had a negative logarithm of the IC50 (pIC50) of more than 6.00. Take `C[C@H](NC(=O)C1(N2CC[C@@H](Oc3cccc(Cl)c3)C2)CC1)c1ccc(C(=O)O)cc1` [Example 160, 4-[(1S)-1-[[1-[(3R)-3-(3-Chlorophenoxy)pyrrolidin-1-yl]cyclopropane-1-carbonyl]amino]ethyl]benzoic acid, hydrochloride]: the pIC50 is more than 7.00. `O=C(O)c1ccc(C2(NC(=O)C3(N4CC[C@H](Oc5cccc(Cl)c5)C4)CCOCC3)CC2)cc1` [Example 139, 4-[1-[[4-[(3S)-3-(3-Chlorophenoxy)pyrrolidin-1-yl]tetrahydropyran-4-carbonyl]amino]cyclopropyl]benzoic acid, hydrochloride]: the pIC50 is more than 6.00.

For the molecule `C[C@H](NC(=O)C1(N2CC[C@@H](Oc3cccc(C(F)(F)F)c3)C2)CCOCC1)c1ccccc1F` [Example 189, N—((S)-1-(2-Fluorophenyl)ethyl)-4-((R)-3-(3-(trifluoromethyl)phenoxy)pyrrolidin-1-yl)tetrahydro-2H-pyran-4-carboxamide, hydrochloride], the pIC50 was more than 6.00. Next, `Cc1cccc(OCCNC2(C(=O)N[C@@H](C)c3ccc(C(=O)O)cc3)CCCCC2)c1` [Example 58, 4-[(1S)-1-[[1-[2-(3-Methylphenoxy)ethylamino]cyclohexanecarbonyl]amino]ethyl]benzoic acid, hydrochloride]: more than 7.00.

In turn, `C[C@H](NC(=O)C1(NCCOc2ccc(Cl)cc2)CCOCC1)c1ccc(C(=O)O)cc1` [Example 11, 4-[(1S)-1-[[4-[2-(4-Chlorophenoxy)ethylamino]tetrahydropyran-4-carbonyl]amino]ethyl]benzoic acid, hydrochloride] showed a pIC50 of more than 6.00. The same measure for `C[C@H](NC(=O)C1(c2ccc(OCCCc3ccccc3)cc2)CCOCC1)c1ccc(C(=O)O)cc1` [Example 92, 4-[(1S)-1-[[4-[4-(3-Phenylpropoxy)phenyl]tetrahydropyran-4-carbonyl]amino]ethyl]benzoic acid]: more than 7.00; for `C[C@H](NC(=O)C1(c2cccc(OCC3CCCCC3)n2)CCCC1)c1ccc(C(=O)O)cc1` [Example 123, 4-[(1S)-1-[[1-[6-(Cyclohexylmethoxy)-2-pyridyl]cyclopentanecarbonyl]amino]ethyl]benzoic acid]: more than 6.00.

The molecule `CN(CCOc1ccccc1)C1(C(=O)NC2(c3ccc(C(=O)O)cc3)CC2)CCOC1` (stereo not shown) [Example 76, 4-[1-[[3-[Methyl(2-phenoxyethyl)amino]tetrahydrofuran-3-carbonyl]amino]cyclopropyl]benzoic acid, hydrochloride] showed a pIC50 of more than 6.00. In turn, `CC(C)CCOc1cccc(C2(C(=O)N[C@@H](C)c3ccc(C(=O)O)cc3)CCOCC2)c1` [Example 104, 4-[(1S)-1-[[4-(3-Isopentyloxyphenyl)tetrahydropyran-4-carbonyl]amino]ethyl]benzoic acid] had a pIC50 of more than 6.00.

Molecule `O=C(O)c1ccc(C2(NC(=O)C3(N(CCOc4ccccc4)CC4CC4)CCOCC3)CC2)cc1` [Example 27, 4-[1-[[4-[Cyclopropylmethyl(2-phenoxyethyl)amino]tetrahydropyran-4-carbonyl]amino]cyclopropyl]benzoic acid, hydrochloride] had a pIC50 of more than 6.00.
